Like-named read-outs stand apart in the source and are kept apart here.
Key:
hFKBP12 = hFKBP12 (Homo sapiens, UniProt P62942); assay: Protease-coupled PPIase assay, FKBP12; type: biochemical; conditions: Example 3; read-out: IC50 value, inhibition of PPlase activity of FKBP12
Experimental: The PPlase activity of hFKBP12 and hCypA was determined by using the protease-coupled PPlase assay as described by Fischer, H. Bang, B. Ludwig, K. Mann, J. Hacker, Mol. Microbiol. 1992, 6, 1375-1383. […] Then reaction was started by addition of 100 µg/mL of the isomer specific protease chymotrypsin, and the release of 4-nitroaniline was monitored by measuring the absorbance at 390 nm. […] Since tested PPlases vary in there catalytic efficiencies, different substrates has to be used to ensure equal rate constants of catalyzed cis/trans isomerization (Table 1). […] Table 1. Substrates for the respective PPlases

hCypA = hCypA (Homo sapiens, UniProt P62937); assay: Protease-coupled PPIase assay, CypA; type: biochemical
Experimental: The PPlase activity of hFKBP12 and hCypA was determined by using the protease-coupled PPlase assay as described by Fischer, H. Bang, B. Ludwig, K. Mann, J. Hacker, Mol. Microbiol. 1992, 6, 1375-1383. To study the effect of compounds 7-10 on PPlase activity, 100 nM of each hFKBP and 5 nM of each hCyp, respectively and 40 µM peptide substrate were preincubated in the presence or absence of various inhibitor concentrations for 6 min at 10 °C in 35mM HEPES/NaCl buffer (pH 7.5). Then reaction was started by addition of 100 µg/mL of the isomer specific protease chymotrypsin, and the release of 4-nitroaniline was monitored by measuring the absorbance at 390 nm. To achieve better comparability of compounds 7-10 effects on PPlase activity, the concentrations of FKBP and Cyp were kept constant at 100 nM and 5 nM, respectively. Since tested PPlases vary in there catalytic efficiencies, different substrates has to be used to ensure equal rate constants of catalyzed cis/trans isomerization (Table 1). […] Table 1. Substrates for the respective PPlases

Sequence of hCypA (P62937 whole entry): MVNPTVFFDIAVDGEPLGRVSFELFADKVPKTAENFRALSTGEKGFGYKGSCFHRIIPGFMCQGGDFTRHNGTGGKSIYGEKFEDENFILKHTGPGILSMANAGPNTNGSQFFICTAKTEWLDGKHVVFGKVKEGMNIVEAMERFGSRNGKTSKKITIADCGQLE
Sequence of hFKBP12 (P62942 whole entry): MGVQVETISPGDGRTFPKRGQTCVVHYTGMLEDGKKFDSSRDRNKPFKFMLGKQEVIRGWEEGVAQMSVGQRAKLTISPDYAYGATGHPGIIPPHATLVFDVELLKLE

Row | Compound | IC50 (hFKBP12) | IC50 (hCypA; read-out: /C50-values, inhibition of PPlase activity of hCypA, Example 1, Figure 1: hCypA 5 nM, substrate suc-Ala-Ala-Pro-Phe-pNA) | IC50 (hCypA; read-out: IC50 value, inhibition of CypA, Example 3)
1 | C[C@@H]1C[C@@H]([C@H](O)CC2CC(=O)N(CC(=O)N(C)C)C(=O)C2)C(=O)[C@@H](C)C1 [DM-CHX, N-(N,N-Dimethylcarboxamidomethyl)cycloheximid] | 36.9 ± 17.1 nM |  | 
2 | C/C=C/C[C@@H](C)[C@@H](O)[C@H]1C(=O)N[C@@H](CC)C(=O)N(C)CC(=O)N(C)[C@@H](CC(C)C)C(=O)N[C@@H](C(C)C)C(=O)N(C)[C@@H](CC(C)C)C(=O)N[C@@H](C)C(=O)N[C@H](CO)C(=O)N(C)[C@@H](CC(C)C)C(=O)N(C)[C@@H](CC(C)C)C(=O)N(C)[C@@H](C(C)C)C(=O)N1C [[D-Ser^8]-CsA] |  | 8.3 ± 1.4 nM | 1.5 ± 0.4 nM

Source: patent EP2705856A1, “Compounds for the treatment of neurodegenerative disorders” (Deutsches Zentrum für Neurodegenerative Erkrankungen e.V., priority 2012, dated 2014)
